Patent publication US20250297292A1, “ENZYMATIC REDUCTION OR REDUCTIVE AMINATION OF ARYL AND HETEROCYCLIC CARBOXYLIC ACIDS AND ALDEHYDES” (University of Delaware Newark, priority 2022, published 2025)

Tests used:
cvTA = assay: Endpoint bioconversion of PET-derived aldehydes to amines by cvTA; format: biochemical, Chromobacterium violaceum; details: 10 mM substrate, 1.5 μM cvTA, 40 mM iPr-NH2, 24 h at 30° C., N=3
Method: cvTA reactions for the conversion of 4FBA and TPAL to their corresponding amine (FIG. 8A) Endpoint bioconversion of 10 mM 4FBA to pAMBA (FIG. 8B) and 10 mM TPAL to pXYL (FIG. 8C) by 1.5 μM cvTA in 100 mM HEPES pH 7.5, 400 μM PLP with 40 mM iPr-NH2 as the amine donor. […] Sample size is N=3 and all data are shown as the mean±standard deviation.

srCAR = assay: Time course of enzymatic reduction of PET-derived carboxylates by srCAR with co-factor regeneration; format: biochemical, Segniliparus rotundus; details: 5 mM substrate, 3-enzyme NADPH and ATP regeneration system, N=3
Method: Endpoint in vitro assays showing the conversion of 5 mM TPA to TPAL after 24 h, with and without co-factor regenerating enzymes. […] Time course analysis of the enzymatic reduction of (i) 5 mM TPA, (ii) 5 mM 4FBA, (iii) 5 mM mmTPA and (iv) 5 mM MHET by CAR (FIG. 10B) All experiments included a 3-enzyme NADPH and ATP regeneration system. […] Sample size is N=3 and all data are shown as the mean±standard deviation. Error bars for certain points of the bioconversion of mmTPA to mm4FBA are smaller than the height of the symbol.

[1] = target: lipase from Candida antarctica (CALB) (Moesziomyces antarcticus, UniProt P41365); assay: De-esterification of PET-derived ester aldehydes by lipase CALB; format: biochemical; details: 1 mM substrate, 24 h, 30° C.
lipase from Candida antarctica (CALB), sequence (P41365 26-342): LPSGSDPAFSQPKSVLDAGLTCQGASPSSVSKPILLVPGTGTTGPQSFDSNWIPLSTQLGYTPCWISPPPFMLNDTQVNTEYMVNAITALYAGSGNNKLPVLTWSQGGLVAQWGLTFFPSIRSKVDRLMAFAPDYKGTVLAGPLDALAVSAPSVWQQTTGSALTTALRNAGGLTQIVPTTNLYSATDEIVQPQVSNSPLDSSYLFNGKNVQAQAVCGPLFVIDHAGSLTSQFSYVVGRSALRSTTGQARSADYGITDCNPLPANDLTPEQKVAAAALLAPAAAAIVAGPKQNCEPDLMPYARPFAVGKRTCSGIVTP

[2] = tested on: CAR from Segniliparus rotundus (srCAR); assay: CAR initial rate by NADPH oxidation (srCAR on PET-derived carboxylates); format: biochemical; details: average activity of srCAR on TPA, triplicate average; used to normalize the heatmap
Text: Using a sequence similarity network, CARs were sampled across distinct protein clusters to probe for activity on TPA. Of 22 cloned CARs, 17 expressed, with 9 of those CARs being unreported in literature (FIG. 9A). Anti-His6 Western blot of cell lysate from E. coli BL21 (DE3) harboring different CARs is shown by phylogeny (FIG. 9B). CARS were expressed under optimized conditions. The Western blot is comprised of two separate blots, which are delineated by the dashed lines and contain their own protein ladders. The first lane of the Western blot is a control lane consisting of lysate from E. coli BL21 (DE3) with no CAR plasmid. A band corresponding to the putative CAR from Streptomyces noursei was not detected during Western blot analysis but was confirmed in a separate experiment. The substrate specificity of CAR was evaluated on TPA, 4FBA, MHET and mmTPA, which are carboxylates related to PET depolymerization (FIG. 9C). In addition, pAMBA was tested, as it is a potential reaction intermediate in our proposed multienzyme cascade for the formation of amines. Under mild aqueous conditions, the conversion of CAR was tracked on TPA, 4FBA, MHET, mmTPA, pAMBA and the model aromatic acid, benzoic acid (FIG. 9D). Here, the oxidation of NADPH is measured as a proxy to aldehyde formation, as depletion of NADPH is linked to the consumption of substrate. […]

Row | Structure (SMILES) | endpoint bioconversion of aldehyde to amine (cvTA) | over-reduction of aldehyde product to alcohol during reduction (srCAR) | de-esterification by CALB [1] | further results
1 | O=Cc1ccc(C(=O)O)cc1 [4FBA, 4-formylbenzoic acid] | proceeds to completion | over-reduction of aldehydes to alcohols |  | 
2 | O=Cc1ccc(C(=O)OCCO)cc1 [MHE-4FBA, 2-hydroxyethyl 4-formylbenzoate] |  |  | completely de-esterified | 
3 | O=C(O)c1ccc(C(=O)O)cc1 [TPA, terephthalic acid] |  | over-reduction of aldehydes to alcohols |  | average initial rate (oxidation of NADPH as proxy to aldehyde formation) [2]: 4.80 mM NADPHox·h^−1·μMCAR^−1
4 | O=Cc1ccc(C=O)cc1 [TPAL, terephthalaldehyde] | proceeds to completion |  |  | 
5 | COC(=O)c1ccc(C=O)cc1 [mm4FBA, methyl 4-formylbenzoate] |  |  | completely de-esterified | 
6 | COC(=O)c1ccc(C(=O)O)cc1 [mmTPA, monomethyl terephthalate] |  | decline in concentration over time to the purported alcohol product |  | 
